In patent US9290485B2, “N-((6-amino-pyridin-3-yl)methyl)-heteroaryl-carboxamides” (NOVARTIS AG, priority 2010, dated 2016):

Biological target: human plasma kallikrein (Homo sapiens (Human), UniProt P03952)
Conditions: human plasma kallikrein 25 pM, substrate 0.5 uM, 1 hour pre-incubation at room temperature, read at t=60 min
Description: All other chemicals were of analytical grade.
A stock solution of 0.17 mg/ml deinonized water was stored at −80° C. Enzymatic reactions were conducted in ‘assay buffer’, comprising 50 mM Hepes/NaOH at pH 7.8, 150 mM NaCl, 1 mM EDTA and 0.05% (w/v) CHAPS.
Both, enzyme and substrate were diluted in assay buffer.
All protein and peptide containing solutions were handled in siliconized tubes (Life Systems Design, Merenschwand, Switzerland). […] Plate measurements were conducted by the means of a Safire2 reader (TECAN, Maennedorf, Switzerland). The Safire2 is a monochomator-based instrument and wavelengths of 485 nm and 535 nm were taken for fluorescence excitation and emission acquisition, respectively. The bandwidths were set to 10 nm in both the excitation and the emission path. The fluorescence in each well was excited by three flashes per measurement.
The test compound was dissolved in 90% (v/v) DMSO/water. For the assays, 250 nL of the 90% (v/v) DMSO/water solution or compound solution were added per well, followed by the addition of 12.5 μl protease solution (protease in assay buffer). […] After 1 hour of pre-incubation at room temperature, the reactions were started by the addition of 12.5 μl substrate solution (in assay buffer, final assay concentration was 0.5 uM). After the addition of the substrate solution, the final DMSO concentration in the assay was 0.9% (v/v). […] The IC50 value was calculated from the plot of percentage of inhibition vs. inhibitor concentration by a logistics fit according to the following equation: y=A2+(A1−A2)/(1+(x/IC50)^p) where y is the %-inhibition at the inhibitor concentration, x. A1 is the lowest inhibition value, i.e. 0%, and A2 the maximum inhibition value, i.e. 100%. The exponent, p, is the Hill coefficient. The curve fitting was conducted with the non-linear regression routine of the analysis software Origin 7.55R6 (OriginLab Corporation).

Chain of human plasma kallikrein (P03952 whole entry, looked up): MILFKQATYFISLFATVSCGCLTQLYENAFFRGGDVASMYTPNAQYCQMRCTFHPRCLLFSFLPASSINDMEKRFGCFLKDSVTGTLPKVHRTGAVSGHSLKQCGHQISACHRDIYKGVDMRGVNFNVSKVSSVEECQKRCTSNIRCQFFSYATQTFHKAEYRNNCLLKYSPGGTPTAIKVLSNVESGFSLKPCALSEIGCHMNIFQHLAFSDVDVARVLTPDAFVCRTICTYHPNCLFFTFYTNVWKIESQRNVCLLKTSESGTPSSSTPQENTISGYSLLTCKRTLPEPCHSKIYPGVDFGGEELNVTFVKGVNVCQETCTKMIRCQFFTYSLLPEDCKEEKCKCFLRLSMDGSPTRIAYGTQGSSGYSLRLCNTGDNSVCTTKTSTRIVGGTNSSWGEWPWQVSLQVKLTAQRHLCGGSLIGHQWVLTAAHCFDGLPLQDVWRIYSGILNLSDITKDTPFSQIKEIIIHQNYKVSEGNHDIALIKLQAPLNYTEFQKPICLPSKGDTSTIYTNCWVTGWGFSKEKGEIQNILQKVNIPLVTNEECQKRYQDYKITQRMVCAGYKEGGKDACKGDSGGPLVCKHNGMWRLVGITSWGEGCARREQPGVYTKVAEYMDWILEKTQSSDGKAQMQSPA
Chain of human plasma kallikrein (P03952 whole entry partner, looked up): as the sequence (P03952 whole entry, looked up) above

| Structure (SMILES) | IC50 [nM] |
| --- | --- |
| Cc1cc(N)nc(C)c1CNC(=O)c1cnn(Cc2ccc(Cn3ccnn3)cc2)c1 [Example 140, 1-(4-((1H-1,2,3-triazol-1-yl)methyl)benzyl)-N-((6-amino-2,4-dimethylpyridin-3-yl)methyl)-1H-pyrazole-4-carboxamide] | 4.6 |
| COc1cccc(S(=O)(=O)n2ccc(C(=O)NCc3c(C)cc(N)nc3C)c2)c1 [Example 129, N-((6-amino-2,4-dimethylpyridin-3-yl)methyl)-1-(3-methoxyphenylsulfonyl)-1H-pyrrole-3-carboxamide] | 244 |
| Cc1cc(N)nc(C)c1CNC(=O)c1cnn(C(C)c2ccccc2)c1 (stereo not shown) [Example 100, N-((6-amino-2,4-dimethylpyridin-3-yl)methyl)-1-(1-phenylethyl)-1H-pyrazole-4-carboxamide] | 642 |
| Cc1cc(N)nc(C)c1CNC(=O)c1cn(Cc2ccccc2)nc1C [Example 49, N-((6-amino-2,4-dimethylpyridin-3-yl)methyl)-1-benzyl-3-methyl-1H-pyrazole-4-carboxamide] | 679 |
| Cc1cc(N)nc(C)c1CNC(=O)c1cc(C)n(Cc2ccccc2)c1C [Example 109, N-((6-amino-2,4-dimethylpyridin-3-yl)methyl)-1-benzyl-2,5-dimethyl-1H-pyrrole-3-carboxamide] | 1300 |
| Cc1cc(N)nc(C)c1CNC(=O)c1cn(Cc2ccccc2)c2ccccc12 [Example 108, N-((6-amino-2,4-dimethylpyridin-3-yl)methyl)-1-benzyl-1H-indole-3-carboxamide] | 798 |
| Cc1nc(N)cc(Br)c1CNC(=O)c1cnn(Cc2ccccc2)c1 [Example 181, N-((6-Amino-4-bromo-2-methylpyridin-3-yl)methyl)-1-benzyl-1H-pyrazole-4-carboxamide] | 37000 |
| Cc1cc(N)nc(C)c1CNC(=O)c1cnn(Cc2cccc(Cl)c2)c1 [Example 92, N-((6-amino-2,4-dimethylpyridin-3-yl)methyl)-1-(3-chlorobenzyl)-1H-pyrazole-4-carboxamide] | 867 |
| Cc1cc(N)nc(C)c1CNC(=O)c1cnn(Cc2ccc(OCC(=O)O)cc2)c1 [Example 134, 2-(4-((4-((6-amino-2,4-dimethylpyridin-3-yl)methylcarbamoyl)-1H-pyrazol-1-yl)methyl)phenoxy)acetic acid] | 1100 |
| Cc1cc(N)nc(C)c1CNC(=O)c1ccn(S(=O)(=O)c2ccc(-c3ccccc3)cc2)c1 [Example 127, N-((6-amino-2,4-dimethylpyridin-3-yl)methyl)-1-(biphenyl-4-ylsulfonyl)-1H-pyrrole-3-carboxamide] | 16 |
| Cc1cc(N)nc(C)c1CNC(=O)c1cnn(Cc2ccc3c(c2)nnn3C)c1 [Example 101, N-((6-amino-2,4-dimethylpyridin-3-yl)methyl)-1-((1-methyl-1H-benzo[d][1,2,3]triazol-5-yl)methyl)-1H-pyrazole-4-carboxamide] | 70 |
| Cc1cc(N)nc(C)c1CNC(=O)c1cnn(Cc2nc3ccccc3s2)c1 [Example 105, N-((6-amino-2,4-dimethylpyridin-3-yl)methyl)-1-(benzo[d]thiazol-2-ylmethyl)-1H-pyrazole-4-carboxamide] | 168 |
| Cc1cc(N)nc(C)c1CNC(=O)c1cnn(Cc2ccc(CN3CCCC3)cc2)c1 [Example 118, N-((6-amino-2,4-dimethylpyridin-3-yl)methyl)-1-(4-(pyrrolidin-1-ylmethyl)benzyl)-1H-pyrazole-4-carboxamide] | 183 |
| Cc1cc(N)nc(C)c1CNC(=O)c1ncn(Cc2cccc3ccccc23)n1 [Example 62, N-((6-amino-2,4-dimethylpyridin-3-yl)methyl)-1-(naphthalen-1-ylmethyl)-1H-1,2,4-triazole-3-carboxamide] | 681 |
| Cc1cc(N)nc(C)c1CNC(=O)c1ncn(Cc2cccc(-n3cccn3)c2)n1 [Example 67, 1-(3-(1H-pyrazol-1-yl)benzyl)-N-((6-amino-2,4-dimethylpyridin-3-yl)methyl)-1H-1,2,4-triazole-3-carboxamide] | 60 |
| Cc1cc(N)nc(C)c1CNC(=O)c1cnn(Cc2noc3ccccc23)c1 [Example 106, N-((6-amino-2,4-dimethylpyridin-3-yl)methyl)-1-(benzo[d]isoxazol-3-ylmethyl)-1H-pyrazole-4-carboxamide] | 415 |
| Cc1cc(N)nc(C)c1CNC(=O)c1ncn(Cc2ccc(-n3cccn3)cc2)n1 [Example 66, 1-(4-(1H-pyrazol-1-yl)benzyl)-N-((6-amino-2,4-dimethylpyridin-3-yl)methyl)-1H-1,2,4-triazole-3-carboxamide] | 325 |
| Cc1cc(N)nc(C)c1CNC(=O)c1cnn(Cc2ccc3c(c2)N(C)C(=O)CO3)c1 [Example 151, N-((6-Amino-2,4-dimethylpyridin-3-yl)methyl)-1-((4-methyl-3-oxo-3,4-dihydro-2H-benzo[b][1,4]oxazin-6-yl)methyl)-1H-pyrazole-4-carboxamide] | 13 |
| Cc1cnn(Cc2ccc(Cn3cc(C(=O)NCc4c(C)cc(N)nc4C)cn3)cc2)c1 [Example 146, N-((6-amino-2,4-dimethylpyridin-3-yl)methyl)-1-(4-((4-methyl-1H-pyrazol-1-yl)methyl)benzyl)-1H-pyrazole-4-carboxamide] | 0.04 |

| Structure (SMILES) | IC50 [nM] |
| --- | --- |
| Cc1cc(N)nc(C)c1CNC(=O)c1cnn(Cc2cccc(C(=O)N3CCCCC3)c2)c1 [Example 119, N-((6-amino-2,4-dimethylpyridin-3-yl)methyl)-1-(3-(piperidine-1-carbonyl)benzyl)-1H-pyrazole-4-carboxamide] | 289 |
| Cc1cc(N)nc(C)c1CNC(=O)c1cn(Cc2ccccc2C#N)c2ccccc12 [Example 107, N-((6-amino-2,4-dimethylpyridin-3-yl)methyl)-1-(2-cyanobenzyl)-1H-indole-3-carboxamide] | 1800 |
| Cc1cc(N)nc(C)c1CNC(=O)c1cn(Cc2ccc3c(c2)c(C)c(C)n3C)nn1 [Example 166, N-((6-amino-2,4-dimethylpyridin-3-yl)methyl)-1-((1,2,3-trimethyl-1H-indol-5-yl)methyl)-1H-1,2,3-triazole-4-carboxamide] | 0.2 |
| Cc1cc(N)nc(C)c1CNC(=O)c1cn(Cc2ccccc2)nn1 [Example 21, N-((6-amino-2,4-dimethylpyridin-3-yl)methyl)-1-benzyl-1H-1,2,3-triazole-4-carboxamide] | 2540 |
| Cc1cncc(Oc2ccc(Cn3cc(C(=O)NCc4c(C)cc(N)nc4C)cn3)cc2)n1 [Example 57, N-((6-amino-2,4-dimethylpyridin-3-yl)methyl)-1-(4-(6-methylpyrazin-2-yloxy)benzyl)-1H-pyrazole-4-carboxamide] | 144 |
| COc1cc(Cn2cc(C(=O)NCc3c(C)cc(N)nc3C)cn2)cc(OC)c1 [Example 73, N-((6-amino-2,4-dimethylpyridin-3-yl)methyl)-1-(3,5-dimethoxybenzyl)-1H-pyrazole-4-carboxamide] | 114 |
| Cc1nc(N)cc(OCc2ncco2)c1CNC(=O)c1cn(Cc2ccccc2)nn1 [Example 137, N-((6-amino-2-methyl-4-(oxazol-2-ylmethoxy)pyridin-3-yl)methyl)-1-benzyl-1H-1,2,3-triazole-4-carboxamide] | 127 |
| Cc1cc(N)nc(C)c1CNC(=O)c1cnn(Cc2ccc(C#N)cc2)c1 [Example 82, N-((6-amino-2,4-dimethylpyridin-3-yl)methyl)-1-(4-cyanobenzyl)-1H-pyrazole-4-carboxamide] | 678 |
| Cc1ccc2cc(Cn3cc(C(=O)NCc4c(C)cc(N)nc4C)cn3)ccc2n1 [Example 154, N-((6-amino-2,4-dimethylpyridin-3-yl)methyl)-1-((2-methylquinolin-6-yl)methyl)-1H-pyrazole-4-carboxamide] | 2 |
| Cc1cc(N)nc(C)c1CNC(=O)c1cnn(Cc2ccc3ccccc3c2)c1 [Example 83, N-((6-amino-2,4-dimethylpyridin-3-yl)methyl)-1-(naphthalen-2-ylmethyl)-1H-pyrazole-4-carboxamide] | 18 |
| Cc1cc(N)nc(C)c1CNC(=O)c1cnn(Cc2ccc(Cn3c(C)cc(=O)n3C)cc2)c1 [Example 141, N-((6-amino-2,4-dimethylpyridin-3-yl)methyl)-1-(4-((2,5-dimethyl-3-oxo-2,3-dihydro-1H-pyrazol-1-yl)methyl)benzyl)-1H-pyrazole-4-carboxamide] | 1.2 |
| Cc1cc(N)nc(C)c1CNC(=O)c1cnn(C(CO)c2ccccc2)c1 (stereo not shown) [Example 11, N-((6-amino-2,4-dimethylpyridin-3-yl)methyl)-1-(2-hydroxy-1-phenylethyl)-1H-pyrazole-4-carboxamide] | 12200 |
| Cc1cc(N)nc(C)c1CNC(=O)c1ccn(S(=O)(=O)c2ccc3c(ccn3C)c2)c1 [Example 131, N-((6-amino-2,4-dimethylpyridin-3-yl)methyl)-1-(1-methyl-1H-indol-5-ylsulfonyl)-1H-pyrrole-3-carboxamide] | 9 |
| Cc1cc(N)nc(C)c1CNC(=O)c1n[nH]c([C@@H](N)c2ccccc2)n1 [Example 123, (S)-5-(amino(phenyl)methyl)-N-((6-amino-2,4-dimethylpyridin-3-yl)methyl)-1H-1,2,4-triazole-3-carboxamide] | 15800 |
| Cc1cc(N)nc(C)c1CNC(=O)c1cnn(Cc2cnc3ccccc3c2)c1 [Example 155, N-((6-amino-2,4-dimethylpyridin-3-yl)methyl)-1-(quinolin-3-ylmethyl)-1H-pyrazole-4-carboxamide] | 3 |
| Cc1cc(N)nc(C)c1CNC(=O)c1cnn(Cc2ccc(OCc3ccccc3)cc2)c1 [Example 94, N-((6-amino-2,4-dimethylpyridin-3-yl)methyl)-1-(4-(benzyloxy)benzyl)-1H-pyrazole-4-carboxamide] | 2.1 |
| Cc1cc(N)nc(C)c1CNC(=O)c1csc(Cc2ccccc2)n1 [Example 47, N-((6-amino-2,4-dimethylpyridin-3-yl)methyl)-2-benzylthiazole-4-carboxamide] | 3200 |
| Cc1cc(N)nc(C)c1CNC(=O)c1cnn(Cc2ccc(C(=O)NC3CCS(=O)(=O)C3)cc2)c1 (stereo not shown) [Example 111, 1-[4-(1,1-Dioxo-tetrahydro-1lambda*6*-thiophen-3-ylcarbamoyl)-benzyl]-1H-pyrazole-4-carboxylic acid (6-amino-2,4-dimethyl-pyridin-3-ylmethyl)-amide] | 2100 |
